In patent US10597696B2, “Detection of Niemann-Pick disease comprising detection of lysozyme and cathepsins” (UNIVERSITY OF NOTRE DAME DU LAC, priority 2013, dated 2020):
“Also recorded” adds a separate entry of the source.

Columns and labels:
[1] = system: Npc1^nih mice; assay: Onset of symptoms and survival of HPβCD-treated Npc1^nih mice; type: in vivo, mouse; details: weekly 4000 mg/Kg from P21
Method: Starting at P21 and once a week thereafter, Npc1^nih and Npc1^nmf164 mice were injected i.p with 20% 2-hydroxypropyl-beta-cyclodextrin (HPβCD, 4000 mg/Kg) prepared in 0.2% DMSO and 0.9% saline. Control mice received 0.2% DMSO in 0.9% saline. Blood was collected either via cheek bleed or terminal heart bleed from mice in EDTA tubes (BD Biosciences, San Jose, Calif., USA). Plasma was separated by centrifugation at 2500 rpm for 15 min and stored at −70° C. until used.
To examine time points of advanced disease, we returned to the shorter, Npc1^nih model. This model typically manifests phenotypic symptoms (weight loss, gait, tremor etc.) from ˜50-55 days and survives up to ˜80-84 days (FIG. 18A). […] We therefore treated Npc1^−/− mice with HPβCD or vehicle control (0.2% DMSO in 0.9% saline) with once a week drug injections (4000 mg/Kg) starting at age P21. […] As reported earlier, the plasma lysozyme activity of vehicle treated Npc1^−/− mice was elevated on average 2-fold in early symptomatic (50-60 days) animals (FIG. 18B) and remained elevated at the late symptomatic stage (70 days) compared to age matched controls (FIG. 18C).

[2] = system: Npc1^nih Npc1^−/− mouse liver; assay: qPCR of cathepsins, inflammation and fibrosis markers in liver after HPβCD; type: in vivo
From the text: In mice, formalin fixed paraffin embedded tissue was sectioned (4-5 μm) and total RNA was isolated using RNeasy FFPE kit (Qiagen, Germantown, Md., USA) which included treatment with DNAse. Frozen human liver and cerebellum from 4 NPC patients and 4 age-, gender- and ethnicity-matched controls were obtained from the NICHD Brain and Tissue Bank for Developmental Disorders (University of Maryland, Baltimore, Md., USA), as approved by the Institutional Review Board (IRB), of the University of Notre Dame, Ind., USA (FWA 00002462). Total RNA was isolated using RNeasy kit (Qiagen, Germantown, Md., USA). Eluted RNA was further digested with RNase free DNaseI and re-purified using RNeasy column. The quality of RNA was checked using Bioanalyzer chip (Agilent Technologies, Santa Clara, Calif., USA) and quantity was determined using Nanodrop 2000 (Thermo Fisher Scientific, Waltham, Mass., USA). Quantitative PCR (qPCR) was performed using Power SYBR Green RNA-to-CT 1-Step Kit and an ABI Prism 7500 Fast real-time PCR system (Applied Biosystems, Grand Island, USA). Reaction was set in 20 μl using 100 nM primers and 5-100 ng total RNA as template. The thermal cycling parameters were as follows: step 1, 48° C. for 30 min; step 2, 95° C. for 10 min; step 3, 95° C. for 15 sec ° C.; step 4, 60° C. for 15 sec. Step 3-4 was repeated for 40 cycles followed by melt curve analysis. Specific amplification was validated by analysis of template titration, melt curves and agarose gel electrophoresis. In both mouse and human tissues, the mRNA levels were normalized to the housekeeping gene, Gapdh (Glyceraldehyde 3-phosphate dehydrogenase). Fold change was calculated by relative standard curve method after correcting PCR efficiency. In mice, the fold change in expression levels of different genes in Npc1^−/− was calculated relative to average levels of expression in Npc1^+/− mice. In human tissues, fold change in transcript expression in NPC liver and cerebellum was expressed relative to average expression in age-matched controls. Starting at P21 and once a week thereafter, Npc1^nih and Npc1^nmf164 mice were injected i.p with 20% 2-hydroxypropyl-beta-cyclodextrin (HPβCD, 4000 mg/Kg) prepared in 0.2% DMSO and 0.9% saline. Control mice received 0.2% DMSO in 0.9% saline. Blood was collected either via cheek bleed or terminal heart bleed from mice in EDTA tubes (BD Biosciences, San Jose, Calif., USA). Plasma was separated by centrifugation at 2500 rpm for 15 min and stored at −70° C. until used.

[3] = system: Npc1^nih mice; details: cited from earlier work
[4] = system: Npc1^nih Npc1^−/− mice; assay: Plasma lysozyme activity in HPβCD-treated Npc1^nih mice; type: in vivo, mouse
Method: Lysozyme activity in plasma was measured using fluorescence based lysozyme assay kit (EnzCheck, Life Technologies, Carlsbad, Calif., USA) as describer earlier (19). Plasma corresponding to 25 μg protein from female and male Npc1^nih mice was used in a 100 μl reaction volume. The reaction was carried out at 37° C. for 24 h. Fluorescence was read using excitation/emission of 494/518 nm in a multiwell plate reader spectramax M2 (Molecular devices, CA, USA). The values obtained were normalized by dividing the numbers by the mean value of lysozyme obtained among untreated Npc1^+/− mice. Purified chicken egg white lysozyme was used as a positive control. Starting at P21 and once a week thereafter, Npc1^nih and Npc1^nmf164 mice were injected i.p with 20% 2-hydroxypropyl-beta-cyclodextrin (HPβCD, 4000 mg/Kg) prepared in 0.2% DMSO and 0.9% saline. Control mice received 0.2% DMSO in 0.9% saline. Blood was collected either via cheek bleed or terminal heart bleed from mice in EDTA tubes (BD Biosciences, San Jose, Calif., USA). Plasma was separated by centrifugation at 2500 rpm for 15 min and stored at −70° C. until used.

[5] = Npc1^nih Npc1^−/−, weekly HPβCD, at 80+ days

## CC(O)COC[C@H]1O[C@@H]2O[C@H]3[C@H](O)[C@@H](O)[C@@H](O[C@H]4[C@H](O)[C@@H](O)[C@@H](O[C@H]5[C@H](O)[C@@H](O)[C@@H](O[C@H]6[C@H](O)[C@@H](O)[C@@H](O[C@H]7[C@H](O)[C@@H](O)[C@@H](O[C@H]8[C@H](O)[C@@H](O)[C@@H](O[C@H]1[C@H](O)[C@H]2O)O[C@@H]8COCC(C)O)O[C@@H]7COCC(C)O)O[C@@H]6COCC(C)O)O[C@@H]5COCC(C)O)O[C@@H]4COCC(C)O)O[C@@H]3COCC(C)O (stereo partly drawn) [HPβCD, 2-hydroxypropyl-beta-cyclodextrin]
[1]; untreated up to ~80-84 days
  survival: 105 to 112 days
[1]; untreated ~49-56 days
  onset of symptoms: 70 to 80 days
[2]; Npc1^−/− mice
  expression of Cd68 in liver: reduced to normal levels
  expression of Col1a in liver: anomalous reduction
  expression of Itgax in liver: reduced to normal levels
[2]; Npc1^−/− mice, late stages
  Lyz1 expression in liver: abrogated Lyz1 over expression; also recorded: restored lysozyme transcript and protein to normal levels
[2]; late stage Npc1^−/− mice
  expression of Ctss in liver: markedly reduced and equivalent to control mice
[3]; Npc1^−/− mice, Cluzeau et al., 2012
  Lgals3 and Ctsd transcripts: reduced
[3]; weekly injections to Npc1^nih, previous studies
  disease and survival: ameliorates the disease and extend the survival; also recorded: reduce disease and extend the survival
[4]; NPC mice, composite quartile analysis (FIG. 20B)
  decrease of plasma lysozyme: 50%
[4]; Npc1^nih Npc1^−/−, weekly 4000 mg/Kg from P21, at 50-60 days
  plasma lysozyme activity: reduced plasma lysozyme activity levels seen in wild type mice
[4]; [5]
  plasma lysozyme compared to mock treated animals: reduction
  plasma lysozyme increase compared to normal animals: 1.5 fold
